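How tested: cells in 96-well plates exposed to compound for 48 hours at five concentrations. At the TGI there is no net growth.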
Legend:
Experiment in all cases: NCI tumour cell line growth inhibition, 48 h
786-0 renal = tested on: 786-0 renal
A498 renal = tested on: A498 renal
A549 NSCLC = tested on: A549 NSCLC
ACHN renal = tested on: ACHN renal
CAKI-1 renal = tested on: CAKI-1 renal
CCRF-CEM leukemia = tested on: CCRF-CEM leukemia
COLO 205 colon = tested on: COLO 205 colon
DLD-1 colon = tested on: DLD-1 colon
DMS 114 small cell lung = tested on: DMS 114 small cell lung
DMS 273 small cell lung = tested on: DMS 273 small cell lung
EKVX NSCLC = tested on: EKVX NSCLC
HCC-2998 colon = tested on: HCC-2998 colon
HCT-116 colon = tested on: HCT-116 colon
HCT-15 colon = tested on: HCT-15 colon
HL-60(TB) leukemia = tested on: HL-60(TB) leukemia
HOP-62 NSCLC = tested on: HOP-62 NSCLC
HOP-92 NSCLC = tested on: HOP-92 NSCLC
HT29 colon = tested on: HT29 colon
IGROV1 ovarian = tested on: IGROV1 ovarian
K-562 leukemia = tested on: K-562 leukemia
KM12 colon = tested on: KM12 colon
KM20L2 colon = tested on: KM20L2 colon
LOX IMVI melanoma = tested on: LOX IMVI melanoma
LXFL 529 NSCLC = tested on: LXFL 529 NSCLC
M14 melanoma = tested on: M14 melanoma
M19-MEL melanoma = tested on: M19-MEL melanoma
MALME-3M melanoma = tested on: MALME-3M melanoma
NCI-H226 lung = tested on: NCI-H226 lung
NCI-H23 lung = tested on: NCI-H23 lung
NCI-H460 lung = tested on: NCI-H460 lung
NCI-H522 lung = tested on: NCI-H522 lung
OVCAR-3 ovarian = tested on: OVCAR-3 ovarian
OVCAR-4 ovarian = tested on: OVCAR-4 ovarian
OVCAR-5 ovarian = tested on: OVCAR-5 ovarian
OVCAR-8 ovarian = tested on: OVCAR-8 ovarian
RPMI-8226 leukemia = tested on: RPMI-8226 leukemia
RXF 393 renal = tested on: RXF 393 renal
RXF-631 renal = tested on: RXF-631 renal
SF-268 CNS = tested on: SF-268 CNS
SF-295 CNS = tested on: SF-295 CNS
SF-539 CNS = tested on: SF-539 CNS
SK-MEL-2 melanoma = tested on: SK-MEL-2 melanoma
SK-MEL-5 melanoma = tested on: SK-MEL-5 melanoma
SK-OV-3 ovarian = tested on: SK-OV-3 ovarian
SN12C renal = tested on: SN12C renal
SNB-19 CNS = tested on: SNB-19 CNS
SNB-75 CNS = tested on: SNB-75 CNS
SNB-78 CNS = tested on: SNB-78 CNS
SW-620 colon = tested on: SW-620 colon
TK-10 renal = tested on: TK-10 renal
U251 CNS = tested on: U251 CNS
UACC-257 melanoma = tested on: UACC-257 melanoma
UACC-62 melanoma = tested on: UACC-62 melanoma
UO-31 renal = tested on: UO-31 renal
XF 498 CNS = tested on: XF 498 CNS
BT-549 breast = tested on: BT-549 breast
DU-145 prostate = tested on: DU-145 prostate
HS 578T breast = tested on: HS 578T breast
MCF7 breast = tested on: MCF7 breast
MDA-MB-231 breast = tested on: MDA-MB-231 breast
MDA-MB-435 = tested on: MDA-MB-435
MDA-N = tested on: MDA-N
MOLT-4 leukemia = tested on: MOLT-4 leukemia
NCI/ADR-RES ovarian = tested on: NCI/ADR-RES ovarian
PC-3 prostate = tested on: PC-3 prostate
SK-MEL-28 melanoma = tested on: SK-MEL-28 melanoma
SR leukemia = tested on: SR leukemia
T-47D breast = tested on: T-47D breast

## O=C(Cc1nc2ccccc2o1)C(=O)Nc1ccccc1C(F)(F)F
786-0 renal
  TGI: > 100 µM
A498 renal
  TGI: > 100 µM
A549 NSCLC
  TGI: > 100 µM
ACHN renal
  TGI: > 100 µM
CAKI-1 renal
  TGI: > 100 µM
CCRF-CEM leukemia
  TGI: > 100 µM
COLO 205 colon
  TGI: > 100 µM
DLD-1 colon
  TGI: > 100 µM
DMS 114 small cell lung
  TGI: > 100 µM
DMS 273 small cell lung
  TGI: > 100 µM
EKVX NSCLC
  TGI: > 100 µM
HCC-2998 colon
  TGI: > 100 µM
HCT-116 colon
  TGI: > 100 µM
HCT-15 colon
  TGI: > 100 µM
HL-60(TB) leukemia
  TGI: > 100 µM
HOP-62 NSCLC
  TGI: > 100 µM
HOP-92 NSCLC
  TGI: > 100 µM
HT29 colon
  TGI: > 100 µM
IGROV1 ovarian
  TGI: > 100 µM
K-562 leukemia
  TGI: > 100 µM
KM12 colon
  TGI: > 100 µM
KM20L2 colon
  TGI: > 100 µM
LOX IMVI melanoma
  TGI: > 100 µM
LXFL 529 NSCLC
  TGI: > 100 µM
M14 melanoma
  TGI: > 100 µM
M19-MEL melanoma
  TGI: > 100 µM
MALME-3M melanoma
  TGI: > 100 µM
NCI-H226 lung
  TGI: > 100 µM
NCI-H23 lung
  TGI: > 100 µM
NCI-H460 lung
  TGI: > 100 µM
NCI-H522 lung
  TGI: > 100 µM
OVCAR-3 ovarian
  TGI: > 100 µM
OVCAR-4 ovarian
  TGI: > 100 µM
OVCAR-5 ovarian
  TGI: > 100 µM
OVCAR-8 ovarian
  TGI: > 100 µM
RPMI-8226 leukemia
  TGI: > 100 µM
RXF 393 renal
  TGI: > 100 µM
RXF-631 renal
  TGI: > 100 µM
SF-268 CNS
  TGI: > 100 µM
SF-295 CNS
  TGI: > 100 µM
SF-539 CNS
  TGI: > 100 µM
SK-MEL-2 melanoma
  TGI: > 100 µM
SK-MEL-5 melanoma
  TGI: > 100 µM
SK-OV-3 ovarian
  TGI: > 100 µM
SN12C renal
  TGI: > 100 µM
SNB-19 CNS
  TGI: > 100 µM
SNB-75 CNS
  TGI: > 100 µM
SNB-78 CNS
  TGI: > 100 µM
SW-620 colon
  TGI: > 100 µM
TK-10 renal
  TGI: > 100 µM
U251 CNS
  TGI: > 100 µM
UACC-257 melanoma
  TGI: > 100 µM
UACC-62 melanoma
  TGI: > 100 µM
UO-31 renal
  TGI: > 100 µM
XF 498 CNS
  TGI: > 100 µM

## CN(C)CCNc1ccc2nnn3c4ccccc4c(=O)c1c23
786-0 renal
  TGI: 16.5 µM
A498 renal
  TGI: 8.96 µM
A549 NSCLC
  TGI: 6.56 µM
ACHN renal
  TGI: 7.01 µM
BT-549 breast
  TGI: 32.3 µM
CAKI-1 renal
  TGI: 18.5 µM
CCRF-CEM leukemia
  TGI: 20.6 µM
COLO 205 colon
  TGI: 5.9 µM
DLD-1 colon
  TGI: 22.9 µM
DMS 114 small cell lung
  TGI: 12.7 µM
DMS 273 small cell lung
  TGI: 11.5 µM
DU-145 prostate
  TGI: 9.68 µM
EKVX NSCLC
  TGI: 13.4 µM
HCC-2998 colon
  TGI: 13.1 µM
HCT-116 colon
  TGI: 13.7 µM
HCT-15 colon
  TGI: 13 µM
HL-60(TB) leukemia
  TGI: 15.7 µM
HOP-62 NSCLC
  TGI: 14.2 µM
HOP-92 NSCLC
  TGI: 9.6 µM
HS 578T breast
  TGI: 9.8 µM
HT29 colon
  TGI: 11 µM
IGROV1 ovarian
  TGI: 26.5 µM
K-562 leukemia
  TGI: 18.9 µM
KM12 colon
  TGI: 13.9 µM
KM20L2 colon
  TGI: 11.6 µM
LOX IMVI melanoma
  TGI: 3.72 µM
LXFL 529 NSCLC
  TGI: 17.5 µM
M14 melanoma
  TGI: 9.03 µM
M19-MEL melanoma
  TGI: 9.42 µM
MALME-3M melanoma
  TGI: 10.4 µM
MCF7 breast
  TGI: 25.2 µM
MDA-MB-231 breast
  TGI: 15.3 µM
MDA-MB-435
  TGI: 13.8 µM
MDA-N
  TGI: 12.4 µM
MOLT-4 leukemia
  TGI: 21 µM
NCI-H226 lung
  TGI: 5.28 µM
NCI-H23 lung
  TGI: 11.6 µM
NCI-H460 lung
  TGI: 7.16 µM
NCI-H522 lung
  TGI: 8.31 µM
NCI/ADR-RES ovarian
  TGI: 9.82 µM
OVCAR-3 ovarian
  TGI: 12.8 µM
OVCAR-4 ovarian
  TGI: 9.44 µM
OVCAR-5 ovarian
  TGI: 11.4 µM
OVCAR-8 ovarian
  TGI: 9.91 µM
PC-3 prostate
  TGI: 7.79 µM
RPMI-8226 leukemia
  TGI: 23.9 µM
RXF 393 renal
  TGI: 16.6 µM
RXF-631 renal
  TGI: 10.3 µM
SF-268 CNS
  TGI: 18.8 µM
SF-295 CNS
  TGI: 13.8 µM
SF-539 CNS
  TGI: 15.6 µM
SK-MEL-2 melanoma
  TGI: 13.9 µM
SK-MEL-28 melanoma
  TGI: 15.1 µM
SK-MEL-5 melanoma
  TGI: 5.35 µM
SK-OV-3 ovarian
  TGI: 33.2 µM
SN12C renal
  TGI: 19.9 µM
SNB-19 CNS
  TGI: 34.8 µM
SNB-75 CNS
  TGI: 10.4 µM
SNB-78 CNS
  TGI: 30.5 µM
SR leukemia
  TGI: > 32.8 µM
SW-620 colon
  TGI: 11 µM
T-47D breast
  TGI: 32.3 µM
TK-10 renal
  TGI: 12.7 µM
U251 CNS
  TGI: 7.63 µM
UACC-257 melanoma
  TGI: 11.4 µM
UACC-62 melanoma
  TGI: 11.6 µM
UO-31 renal
  TGI: 8.6 µM
XF 498 CNS
  TGI: 19.5 µM

Reference: PubChem BioAssay (NCI)
